Laboratory results taken from article PMC6152791, “Synthesis and Evaluation of Novel 2-Pyrrolidone-Fused (2-Oxoindolin-3-ylidene)methylpyrrole Derivatives as Potential Multi-Target Tyrosine Kinase Receptor Inhibitors” (Molecules : A Journal of Synthetic Chemistry and Natural …, 2017).

Columns and labels:
HUVECs = assay: In vitro VEGF-induced tube formation assay (Kurabo angiogenesis kit); type: cell-based, human; settings: for IC50: Homo sapiens, HUVEC, 264 h, VEGF 10 ng/mL, 11 days, read-out: IC50 of Tube Area
Description: Angiogenesis Kit (Kurabo, Neyagawa, Osaka, Japan) was used in accordance with the manufacturer’s protocols. Briefly, HUVECs and fibroblasts were co-cultured in 24-well plates with basal medium or solvent control medium (basal medium containing 1.0% DMSO) or solvent control medium containing 9, 10, 11, and 12 (0.50 μM, 0.25 μM and 0.10 μM). The medium renewals with or without agent in cultures were conducted every 3 days. After 11 days HUVECs were fixed and stained with anti-CD31 antibody in line with the manufacturer’s protocols. The tube formation area were measured using Angiogenesis Image Analyzer (Kurabo, Neyagawa, Osaka, Japan) with suaramin (70 μM) as positive control.

786-O = assay: Cell proliferation assay (MTT); type: cell-based, human; settings: for IC50: Homo sapiens, 786-0, MTT, 72 h incubation; for Selective Index (SI) 786-O: relative to Detroit 551 normal fibroblasts
Description: (§1) At the end of the incubation, cell viability was determined by 3-(4,5-dimethylthiazol-2-yl)-2,5-diphenyl tetrazolium bromide (MTT). The MTT formazan crystals were dissolved by DMSO, and the absorbance at 570 nm using a microplate spectrophotometer (Thermo Fisher Scientific, Waltham, MA, USA).

HCT116 = assay: Cell proliferation assay (MTT); type: cell-based, human; settings: for IC50: Homo sapiens, HCT-116, MTT, 72 h incubation; for Selective Index (SI) HCT116: relative to Detroit 551 normal fibroblasts
Description: as §1

NCI-H460 = assay: Cell proliferation assay (MTT); type: cell-based, human; settings: for IC50: Homo sapiens, NCI-H460, MTT, 72 h incubation; for Selective Index (SI) NCI-H460: relative to Detroit 551 normal fibroblasts
Description: as §1

PDGFRβ = target: T1, PDGFRβ (Homo sapiens, UniProt P09619); assay: In vitro kinase assay (HotSpot, 33P); type: biochemical; settings: ATP 10.0 μM; for inhibition at 0.05 µM: 50 nM compound
T1 construct: purchased Reaction Biology Corporation
T1 sequence (P09619 33-1106): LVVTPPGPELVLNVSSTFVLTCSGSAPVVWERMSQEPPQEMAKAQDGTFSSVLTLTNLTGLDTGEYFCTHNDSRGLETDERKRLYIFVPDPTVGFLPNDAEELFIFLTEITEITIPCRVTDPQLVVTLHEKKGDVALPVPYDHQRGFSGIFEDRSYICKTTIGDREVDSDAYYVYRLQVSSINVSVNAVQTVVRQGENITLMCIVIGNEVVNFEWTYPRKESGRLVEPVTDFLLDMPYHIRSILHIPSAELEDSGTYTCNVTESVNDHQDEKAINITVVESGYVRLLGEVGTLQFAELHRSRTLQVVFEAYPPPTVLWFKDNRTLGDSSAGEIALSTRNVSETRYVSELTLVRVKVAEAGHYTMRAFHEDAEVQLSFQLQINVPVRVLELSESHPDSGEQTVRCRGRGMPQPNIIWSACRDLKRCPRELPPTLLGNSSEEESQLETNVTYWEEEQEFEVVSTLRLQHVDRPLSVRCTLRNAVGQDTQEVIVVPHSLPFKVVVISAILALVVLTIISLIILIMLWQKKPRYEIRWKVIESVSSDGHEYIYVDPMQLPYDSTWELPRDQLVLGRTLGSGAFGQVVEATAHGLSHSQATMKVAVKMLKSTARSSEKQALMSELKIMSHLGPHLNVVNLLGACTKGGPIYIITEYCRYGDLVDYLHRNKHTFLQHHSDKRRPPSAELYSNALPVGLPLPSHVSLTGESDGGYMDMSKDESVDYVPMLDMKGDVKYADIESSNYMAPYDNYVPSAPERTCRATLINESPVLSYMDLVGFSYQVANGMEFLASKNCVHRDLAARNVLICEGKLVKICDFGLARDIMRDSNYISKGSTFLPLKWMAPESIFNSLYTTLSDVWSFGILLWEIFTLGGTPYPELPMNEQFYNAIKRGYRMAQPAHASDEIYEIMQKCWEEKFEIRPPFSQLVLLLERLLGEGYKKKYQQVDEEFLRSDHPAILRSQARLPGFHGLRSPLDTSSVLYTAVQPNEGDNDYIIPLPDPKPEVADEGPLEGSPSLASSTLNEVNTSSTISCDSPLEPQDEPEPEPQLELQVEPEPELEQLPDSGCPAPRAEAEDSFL
Description: (§2) Briefly, specific kinase and substrate and required cofactors were prepared in reaction buffer. Test compounds were added into the reaction, after 20 min, a mixture of ATP (Sigma, St. Louis, MO, USA) and ^33P ATP (Perkin Elmer, Waltham, MA, USA) was added to make a final concentration of 10.0 μM. Reactions were stood at room temperature for 120 min, and spot the reactions onto P81 ion exchange filter paper (Whatman Inc., Piscataway, NJ, USA). Unbound phosphate was removed by extensive washing of filters in 0.1% phosphoric acid. Kinase activity data was reported as the percent remaining kinase activity in test compounds compared to solvent control (DMSO).

VEGFR-2 = target: T2, VEGFR-2 (Homo sapiens, UniProt P35968); assay: In vitro kinase assay (HotSpot, 33P); type: biochemical; settings: ATP 10.0 μM; for inhibition at 0.05 µM: 50 nM compound
T2 construct: purchased Reaction Biology Corporation
T2 sequence (P35968 20-1356): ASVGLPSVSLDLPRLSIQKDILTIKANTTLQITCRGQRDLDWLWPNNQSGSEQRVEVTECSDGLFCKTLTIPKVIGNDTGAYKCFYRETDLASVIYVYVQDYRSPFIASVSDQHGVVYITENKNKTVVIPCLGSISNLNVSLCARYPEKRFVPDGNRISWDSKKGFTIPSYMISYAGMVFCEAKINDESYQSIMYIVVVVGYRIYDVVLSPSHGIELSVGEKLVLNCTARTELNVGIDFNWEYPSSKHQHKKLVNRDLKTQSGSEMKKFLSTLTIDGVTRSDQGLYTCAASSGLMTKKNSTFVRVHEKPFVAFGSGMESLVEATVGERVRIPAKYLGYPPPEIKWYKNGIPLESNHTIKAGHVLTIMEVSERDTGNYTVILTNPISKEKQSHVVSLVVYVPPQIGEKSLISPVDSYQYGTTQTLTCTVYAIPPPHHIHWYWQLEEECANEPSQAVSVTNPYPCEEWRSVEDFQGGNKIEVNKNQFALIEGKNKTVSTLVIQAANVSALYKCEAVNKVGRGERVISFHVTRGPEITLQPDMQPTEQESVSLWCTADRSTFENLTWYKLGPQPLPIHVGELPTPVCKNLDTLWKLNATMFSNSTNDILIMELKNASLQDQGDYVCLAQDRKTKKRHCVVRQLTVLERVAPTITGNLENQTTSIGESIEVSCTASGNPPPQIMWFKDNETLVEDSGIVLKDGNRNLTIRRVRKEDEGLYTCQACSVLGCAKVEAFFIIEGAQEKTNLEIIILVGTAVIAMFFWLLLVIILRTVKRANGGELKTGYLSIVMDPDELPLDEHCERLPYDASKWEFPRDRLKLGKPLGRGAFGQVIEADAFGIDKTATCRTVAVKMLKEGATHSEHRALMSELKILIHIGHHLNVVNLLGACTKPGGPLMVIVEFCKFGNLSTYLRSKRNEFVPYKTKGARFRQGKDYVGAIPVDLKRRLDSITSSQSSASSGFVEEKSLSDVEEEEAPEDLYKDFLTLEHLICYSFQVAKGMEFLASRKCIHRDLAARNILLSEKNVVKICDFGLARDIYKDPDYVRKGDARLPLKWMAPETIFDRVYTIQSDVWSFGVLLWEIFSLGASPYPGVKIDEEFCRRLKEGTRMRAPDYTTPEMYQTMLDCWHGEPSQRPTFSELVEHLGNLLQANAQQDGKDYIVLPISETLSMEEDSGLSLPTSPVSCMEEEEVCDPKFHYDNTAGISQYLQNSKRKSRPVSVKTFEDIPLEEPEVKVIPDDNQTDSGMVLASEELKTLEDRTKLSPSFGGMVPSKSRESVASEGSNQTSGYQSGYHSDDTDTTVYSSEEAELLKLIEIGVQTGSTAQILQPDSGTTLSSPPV
Description: as §2

Detroit 551 = assay: Cell proliferation assay (MTT) on normal fibroblasts; type: cell-based; settings: Homo sapiens, 72 h incubation, normal fibroblast cells
Description: The HCT116 (human colon cancer cells, BCRC 60349) and Detroit 551 (human normal fibroblast cells, BCRC 60118) were maintained in DMEM (Gibco, Grand Island, NY, USA) containing 10% FBS (HyClone, Logan, UT, USA). NCI-H460 (BCRC 60373) and 786-O (BCRC 60243) were maintained in RPMI 1640 (Gibco, Grand Island, NY, USA) containing 10% FBS (HyClone, Logan, UT, USA). They were incubated at 37 °C in a 5% CO2 atmosphere.
The cells incubated as above were plated at a density of 2000 cells/well (cancer cells) or 10,000 cells/well (Detroit 551) on a 96-well plate for 24 h; serial dilutions of indicated compounds were added and incubated for additional 72 h. At the end of the incubation, cell viability was determined by 3-(4,5-dimethylthiazol-2-yl)-2,5-diphenyl tetrazolium bromide (MTT). The MTT formazan crystals were dissolved by DMSO, and the absorbance at 570 nm using a microplate spectrophotometer (Thermo Fisher Scientific, Waltham, MA, USA).

aurora A = target: T3, aurora A (Homo sapiens, UniProt O14965); assay: In vitro kinase assay (HotSpot, 33P); type: biochemical; settings: 1.0 μM compound, ATP 10.0 μM
T3 construct: purchased Reaction Biology Corporation
T3 sequence (O14965 1-403): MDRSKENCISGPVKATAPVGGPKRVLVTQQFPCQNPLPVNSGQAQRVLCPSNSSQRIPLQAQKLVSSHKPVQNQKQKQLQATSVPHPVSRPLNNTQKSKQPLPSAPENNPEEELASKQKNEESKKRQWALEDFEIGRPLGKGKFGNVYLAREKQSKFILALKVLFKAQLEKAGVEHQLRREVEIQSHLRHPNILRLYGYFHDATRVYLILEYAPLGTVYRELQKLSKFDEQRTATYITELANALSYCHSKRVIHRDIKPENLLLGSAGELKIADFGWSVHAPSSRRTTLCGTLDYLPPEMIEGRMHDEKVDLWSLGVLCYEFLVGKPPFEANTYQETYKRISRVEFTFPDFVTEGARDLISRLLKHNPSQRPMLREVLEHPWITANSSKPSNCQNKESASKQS
Description: as §2, with “[…]. Briefly,” for “Briefly,”

HCT116 cells = assay: Cell cycle profile by image cytometry; type: cell-based, human; settings: 24 h
Description: Cell cycle profiles of HCT116 cells were determined with an NC-3000 image cytometer (ChemoMetec, Allerod, Denmark) in accordance with manufacturer’s protocol. Briefly, cells were seeded at 200,000 cells/well on a 6-well plate for 24 h. […] After incubation for 24 h, 100,000 cells were harvested and centrifuged for 5 min at 400 g at room temperature, washed once with PBS […] and resuspended with 50 μL of lysis buffer (ChemoMetec, Allerod, Denmark) containing 10 μg/mL of 2-(4-amidinophenyl)-1H-indole-6-carboxamidine (DAPI, ChemoMetec, Allerod, Denmark). The cells were incubated at 37 °C for 5 min, 50 μL of stabilization buffer (ChemoMetec, Allerod, Denmark) was added to the solution, and the cellular fluorescence was measured with an NC-3000 image cytometer using NC-SlideA8 (ChemoMetec, Allerod, Denmark). The NC-3000 software (ChemoMetec, Allerod, Denmark) was used for image acquisition, image analysis and quantification and data visualization.

[1] = tested on: Detroit 551, HCT116, NCI-H460 and 786-O cell lines; assay: Acute cytotoxicity (WST-8, Cell-Counting-Kit-8); type: cell-based, human; settings: 10 μM, 6 h, WST-8, all tested cell lines
Description: Cells were seeded at 5000 cells/well on a 96-well plate for 24 h. The indicated compounds in different concentration (100 μL) were added to cells. Post 6 h, old medium was aspirated, and cells were washed three times with PBS. WST-8 (Dojindo, Rockville, MD, USA) (10 µL) was added to each well, and the absorbance of the plate was recorded at 450 nm on a microplate spectrophotometer (Thermo Fisher Scientific, Waltham, MA, USA).

IC50 (786-O) | IC50 (HCT116) | IC50 (NCI-H460) | inhibition at 0.05 µM (PDGFRβ) | IC50 (PDGFRβ) | inhibition at 0.05 µM (VEGFR-2) | IC50 (VEGFR-2) | melting point | inhibition at 1 µM (aurora A) | SMILES | IC50 (HUVECs) | Selective Index (SI) HCT116 (HCT116) | IC50 (Detroit 551) | cell cycle profile effect (HCT116 cells; 5.0 μM) | Selective Index (SI) 786-O (786-O) | tube formation IC50, fold stronger than sunitinib (HUVECs; vs sunitinib) | Selective Index (SI) NCI-H460 (NCI-H460) | cell cycle profile effect (HCT116 cells; 1.0 μM) | anti-proliferation potency against HCT116, fold stronger than 8 (HCT116; vs 8 (C(5)-H)) | anti-proliferation potency against HCT116, fold stronger than sunitinib (HCT116; vs sunitinib) | acute cellular toxicity [1]
> 10000 nM | 2940 ± 660 nM | > 10000 nM | 36% | 97.5 nM | 35% | 111 nM | 245 to 246 °C | 93.1% | CCN(CC)CCN1Cc2[nH]c(/C=C3\C(=O)Nc4ccc(F)cc43)c(C)c2C1=O [Compound 9, (Z)-3-((5-(2-(Diethylamino)ethyl)-3-methyl-4-oxo-1,4,5,6-tetrahydropyrrolo[3,4-b]pyrrol-2-yl)methylene)-5-fluoroindolin-2-one] | 367 ± 16 nM | >3.4 | > 10000 nM | G0/G1 cell cycle arrest |  |  |  |  |  |  | 
7300 ± 1200 nM | 3090 ± 700 nM | > 10000 nM | 64% | 24.9 nM | 58% | 35 nM | 252 to 253 °C | 93.7% | CCN(CC)CCN1Cc2[nH]c(/C=C3\C(=O)Nc4ccc(Cl)cc43)c(C)c2C1=O [Compound 10, (Z)-5-Chloro-3-((5-(2-(diethylamino)ethyl)-3-methyl-4-oxo-1,4,5,6-tetrahydropyrrolo[3,4-b]pyrrol-2-yl)methylene)indolin-2-one] | 299 ± 70 nM | >3.23 | > 10000 nM | G0/G1 cell cycle arrest | >1.37 |  |  |  |  |  | 
6270 ± 670 nM | 3420 ± 570 nM | 6230 ± 570 nM | 44% |  |  |  |  |  | CCN(CC)CCNC(=O)c1c(C)[nH]c(/C=C2\C(=O)Nc3ccc(F)cc32)c1C [Sunitinib, sunitinib, reference compound] | 387 ± 16 nM |  |  | G0/G1 cell cycle arrest |  |  |  |  |  |  | nearly free from acute cellular toxicity

Second part, the compound before the results:

SMILES | IC50 (786-O) | IC50 (HCT116) | IC50 (NCI-H460) | inhibition at 0.05 µM (PDGFRβ) | IC50 (PDGFRβ) | inhibition at 0.05 µM (VEGFR-2) | IC50 (VEGFR-2) | melting point | inhibition at 1 µM (aurora A) | IC50 (HUVECs) | Selective Index (SI) HCT116 (HCT116) | IC50 (Detroit 551) | cell cycle profile effect (HCT116 cells; 5.0 μM) | Selective Index (SI) 786-O (786-O) | tube formation IC50, fold stronger than sunitinib (HUVECs; vs sunitinib) | Selective Index (SI) NCI-H460 (NCI-H460) | cell cycle profile effect (HCT116 cells; 1.0 μM) | anti-proliferation potency against HCT116, fold stronger than 8 (HCT116; vs 8 (C(5)-H)) | anti-proliferation potency against HCT116, fold stronger than sunitinib (HCT116; vs sunitinib) | acute cellular toxicity [1]
CCN(CC)CCN1Cc2[nH]c(/C=C3\C(=O)Nc4ccccc43)c(C)c2C1=O [Compound 8, (Z)-3-((5-(2-(Diethylamino)ethyl)-3-methyl-4-oxo-1,4,5,6-tetrahydropyrrolo[3,4-b]pyrrol-2-yl)methylene)indolin-2-one] | > 10000 nM | 4250 ± 1880 nM | > 10000 nM | 64% | 22.4 nM | 56% | 30.2 nM | 167 to 168 °C | 95.9% | 310 ± 15 nM | >2.35 | > 10000 nM | increase phase of polyploid |  |  |  |  |  |  | 
CCN(CC)CCN1Cc2[nH]c(/C=C3\C(=O)Nc4ccc(Br)cc43)c(C)c2C1=O [Compound 11, (Z)-5-Bromo-3-((5-(2-(diethylamino)ethyl)-3-methyl-4-oxo-1,4,5,6-tetrahydropyrrolo[3,4-b]pyrrol-2-yl)methylene)indolin-2-one] | 7060 ± 300 nM | 1050 ± 180 nM | 6570 ± 1640 nM | 68% | 16.1 nM | 64% | 24.7 nM | 266 to 267 °C | 93.1% | 179 ± 29 nM | >9.52 | > 10000 nM |  | >1.42 | approximately 2 fold | >1.52 | increase phase of polyploid |  |  | 
CCN(CC)CCN1Cc2[nH]c(/C=C3\C(=O)Nc4ccc(I)cc43)c(C)c2C1=O [Compound 12, (Z)-3-((5-(2-(Diethylamino)ethyl)-3-methyl-4-oxo-1,4,5,6-tetrahydropyrrolo[3,4-b]pyrrol-2-yl)methylene)-5-iodoindolin-2-one] | 7760 ± 290 nM | 420 ± 160 nM | 2950 ± 830 nM | 62% | 29.3 nM | 58% | 35.1 nM | 267 to 268 °C | 92.9% | 313 ± 37 nM | 21.93 | 9210 ± 1610 nM |  | 1.19 |  | 3.12 | G0/G1 cell cycle arrest | ~10 fold | approximately 8 fold | 
